Assay: xn = mol fraction of the nth substance listed
Conditions: 101 kPa, Liquid; for viscosity: Capillary tube (Ostwald / Ubbelohde) method; for mass density: Vibrating tube method

CCCCCC(C)O (stereo not given) [2-heptanol] + CCC(C)=O
Conditions	mass density, 298.15 K [kg/m3]	mass density, 303.15 K [kg/m3]	mass density, 308.15 K [kg/m3]	mass density, 313.15 K [kg/m3]	viscosity, 298.15 K [mPa·s]	viscosity, 303.15 K [mPa·s]	viscosity, 308.15 K [mPa·s]	viscosity, 313.15 K [mPa·s]
x2 = 0	813.18	809.26	805.01	801.14	5.003	4.152	3.478	2.853
x2 = 0.0834	811.4	807.5	803.22	799.4	3.89	3.282	2.749	2.282
x2 = 0.1619	809.92	805.97	801.7	797.73	3.091	2.614	2.21	1.846
x2 = 0.2426	808.4	804.47	800.16	796.12	2.441	2.083	1.758	1.478
x2 = 0.3491	806.63	802.53	798.16	794.11	1.793	1.528	1.303	1.095
x2 = 0.4375	805.3	801.03	796.6	792.53	1.367	1.184	1.021	0.895
x2 = 0.5661	803.5	799.1	794.57	790.44	0.901	0.818	0.746	0.684
x2 = 0.6502	802.41	797.92	793.35	789.19	0.712	0.659	0.613	0.581
x2 = 0.7371	801.4	796.84	792.26	788.05	0.592	0.552	0.513	0.481
x2 = 0.8498	800.4	795.59	790.95	786.69	0.451	0.434	0.416	0.399
x2 = 0.9401	799.73	794.95	790.35	786	0.398	0.386	0.373	0.361

CCCCC(C)O (stereo not given) [2-hexanol] + CCC(C)=O
Conditions	mass density, 298.15 K [kg/m3]	mass density, 303.15 K [kg/m3]	mass density, 308.15 K [kg/m3]	mass density, 313.15 K [kg/m3]	viscosity, 298.15 K [mPa·s]	viscosity, 303.15 K [mPa·s]	viscosity, 308.15 K [mPa·s]	viscosity, 313.15 K [mPa·s]
x2 = 0	810.14	806.13	802.06	797.96	4.101	3.411	2.819	2.219
x2 = 0.0874	808.49	804.57	800.48	796.34	3.085	2.587	2.145	1.714
x2 = 0.1661	807.21	803.17	799.05	794.87	2.413	2.035	1.684	1.358
x2 = 0.2482	805.92	801.8	797.59	793.4	1.909	1.63	1.361	1.086
x2 = 0.355	804.36	800.03	795.83	791.6	1.454	1.232	1.027	0.826
x2 = 0.4463	803.2	798.8	794.5	790.25	1.178	0.998	0.831	0.692
x2 = 0.5671	801.84	797.36	792.94	788.71	0.889	0.775	0.678	0.592
x2 = 0.6534	801.04	796.47	792.02	787.75	0.718	0.647	0.587	0.536
x2 = 0.7422	800.4	795.74	791.22	786.94	0.603	0.564	0.525	0.487
x2 = 0.8547	799.91	795.09	790.45	786.14	0.505	0.479	0.449	0.419
x2 = 0.942	799.62	794.76	790.06	785.68	0.429	0.41	0.388	0.366

CCC(C)=O [butanone] + CC(C)O
Conditions	mass density, 298.15 K [kg/m3]	mass density, 303.15 K [kg/m3]	mass density, 308.15 K [kg/m3]	mass density, 313.15 K [kg/m3]	viscosity, 298.15 K [mPa·s]	viscosity, 303.15 K [mPa·s]	viscosity, 308.15 K [mPa·s]	viscosity, 313.15 K [mPa·s]
x1 = 0.0819	782.25	777.85	772.94	768.48	1.657	1.503	1.371	1.245
x1 = 0.1607	783.38	778.97	774.09	769.53	1.358	1.286	1.208	1.139
x1 = 0.24	784.62	780.11	775.17	770.66	1.142	1.11	1.077	1.041
x1 = 0.349	786.42	781.79	776.85	772.33	0.939	0.924	0.909	0.895
x1 = 0.4405	788.05	783.31	778.38	773.86	0.818	0.807	0.795	0.784
x1 = 0.5593	790.28	785.48	780.55	776.07	0.702	0.686	0.669	0.654
x1 = 0.6511	792.07	787.24	782.38	777.9	0.626	0.607	0.587	0.569
x1 = 0.7392	793.87	789.03	784.21	779.74	0.551	0.539	0.527	0.515
x1 = 0.8496	796.19	791.36	786.58	782.16	0.465	0.456	0.448	0.44
x1 = 0.937	798.09	793.22	788.46	784.11	0.417	0.406	0.396	0.386
x1 = 1	799.48	794.63	789.9	785.52	0.381	0.368	0.352	0.339

CCC(C)=O [butanone] + CCC(C)O
Conditions	mass density, 298.15 K [kg/m3]	mass density, 303.15 K [kg/m3]	mass density, 308.15 K [kg/m3]	mass density, 313.15 K [kg/m3]	viscosity, 298.15 K [mPa·s]	viscosity, 303.15 K [mPa·s]	viscosity, 308.15 K [mPa·s]	viscosity, 313.15 K [mPa·s]
x1 = 0.0833	801.7	797.1	792.46	788.12	2.502	2.135	1.832	1.525
x1 = 0.161	800.91	796.26	791.63	787.2	2.081	1.791	1.571	1.359
x1 = 0.2402	800.19	795.56	790.81	786.44	1.749	1.533	1.355	1.206
x1 = 0.3498	799.4	794.77	789.93	785.56	1.428	1.284	1.143	1.018
x1 = 0.441	798.92	794.27	789.42	785.03	1.213	1.078	0.976	0.895
x1 = 0.5609	798.55	793.86	789.01	784.61	0.981	0.886	0.82	0.76
x1 = 0.6498	798.44	793.74	788.83	784.44	0.824	0.768	0.706	0.664
x1 = 0.7398	798.47	793.74	788.83	784.43	0.671	0.638	0.603	0.572
x1 = 0.8501	798.73	793.92	789.09	784.68	0.528	0.506	0.486	0.465
x1 = 0.9405	799.06	794.23	789.47	785.05	0.434	0.417	0.397	0.38
x1 = 1	799.48	794.63	789.9	785.52	0.381	0.368	0.352	0.339

CCCC(C)O (stereo not given) [pentan-2-ol] + CCC(C)=O
Conditions	mass density, 298.15 K [kg/m3]	mass density, 303.15 K [kg/m3]	mass density, 308.15 K [kg/m3]	mass density, 313.15 K [kg/m3]	viscosity, 298.15 K [mPa·s]	viscosity, 303.15 K [mPa·s]	viscosity, 308.15 K [mPa·s]	viscosity, 313.15 K [mPa·s]
x2 = 0	805.41	801.21	796.64	792.51	3.478	2.801	2.335	1.993
x2 = 0.0852	804.2	799.84	795.37	791.21	2.516	2.204	1.894	1.662
x2 = 0.1643	803.1	798.76	794.25	790.05	2.008	1.786	1.581	1.429
x2 = 0.2456	802.1	797.76	793.2	788.94	1.592	1.439	1.316	1.217
x2 = 0.3511	801	796.62	791.97	787.7	1.183	1.103	1.038	0.992
x2 = 0.4422	800.24	795.77	791.11	786.83	0.92	0.891	0.86	0.832
x2 = 0.5632	799.6	794.94	790.27	785.94	0.702	0.693	0.683	0.673
x2 = 0.6508	799.3	794.56	789.87	785.47	0.62	0.608	0.595	0.583
x2 = 0.7416	799.14	794.34	789.63	785.18	0.569	0.548	0.528	0.507
x2 = 0.8512	799.2	794.26	789.56	785.05	0.48	0.463	0.445	0.427
x2 = 0.941	799.31	794.39	789.76	785.17	0.428	0.407	0.385	0.364

— the NIST ThermoML archive (doi:10.1016/j.tca.2012.12.008)
